System: yeast genes (expressed mRNA)
Experiment: DNA chip measurement of expressed mRNA of yeast genes after culture with a toxic chemical substance
Assay type: cell-based, Saccharomyces cerevisiae S288C
Settings: for level of expressed mRNA in the presence of chemical substance / level in the absence of chemical substance: cultured two hours with the chemical substance; for The level of expressed mRNA in the presence of chemical substance/The level of expressed mRNA in the absence of chemical substance: cultured two hours with substance
Procedure, shortened: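 Each expression value is the mRNA level in chemical-treated yeast divided by that in untreated yeast, from Cy3/Cy5 fluorescence on a whole-genome chip. Log-phase S288C cells in YPD at 25° C had received a sublethal, growth-inhibiting dose for two hours. Intensity denotes control expression relative to the all-gene mean.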

[Cl][Hg][Cl] [(3), HgCl2]
The level of expressed mRNA in the presence of chemical substance/The level of expressed mRNA in the absence of chemical substance, yeast gene YBR036C (gene YBR036C, Metabolism protein genes, DNA chip fluorescence ratio): 1.8
The level of expressed mRNA in the presence of chemical substance/The level of expressed mRNA in the absence of chemical substance, yeast gene YBR298C (gene YBR298C, Metabolism protein genes, DNA chip fluorescence ratio): 1.6
The level of expressed mRNA in the presence of chemical substance/The level of expressed mRNA in the absence of chemical substance, yeast gene YDL067C (gene YDL067C (mitochondria-located protein gene), yeast cultured two hours with chemical substance, DNA chip fluorescence ratio to control): 1.6
The level of expressed mRNA in the presence of chemical substance/The level of expressed mRNA in the absence of chemical substance, yeast gene YDL078C (gene YDL078C, Metabolism protein genes, DNA chip fluorescence ratio): 1.2
The level of expressed mRNA in the presence of chemical substance/The level of expressed mRNA in the absence of chemical substance, yeast gene YDL215C (gene YDL215C, Metabolism protein genes, DNA chip fluorescence ratio): 1.0
The level of expressed mRNA in the presence of chemical substance/The level of expressed mRNA in the absence of chemical substance, yeast gene YDR079W (gene YDR079W (mitochondria-located protein gene), yeast cultured two hours with chemical substance, DNA chip fluorescence ratio to control): 0.8
The level of expressed mRNA in the presence of chemical substance/The level of expressed mRNA in the absence of chemical substance, yeast gene YDR297W (gene YDR297W, Metabolism protein genes, DNA chip fluorescence ratio): 0.8
The level of expressed mRNA in the presence of chemical substance/The level of expressed mRNA in the absence of chemical substance, yeast gene YDR387C (gene YDR387C, Metabolism protein genes, DNA chip fluorescence ratio): 1.2
The level of expressed mRNA in the presence of chemical substance/The level of expressed mRNA in the absence of chemical substance, yeast gene YGL035C (gene YGL035C, Metabolism protein genes, DNA chip fluorescence ratio): 4.3
The level of expressed mRNA in the presence of chemical substance/The level of expressed mRNA in the absence of chemical substance, yeast gene YGR062C (gene YGR062C (mitochondria-located protein gene), yeast cultured two hours with chemical substance, DNA chip fluorescence ratio to control): 0.7
The level of expressed mRNA in the presence of chemical substance/The level of expressed mRNA in the absence of chemical substance, yeast gene YGR287C (gene YGR287C, Metabolism protein genes, DNA chip fluorescence ratio): 1.3
The level of expressed mRNA in the presence of chemical substance/The level of expressed mRNA in the absence of chemical substance, yeast gene YJL070C (gene YJL070C, Metabolism protein genes, DNA chip fluorescence ratio): 1.1
The level of expressed mRNA in the presence of chemical substance/The level of expressed mRNA in the absence of chemical substance, yeast gene YJL096W (gene YJL096W (mitochondria-located protein gene), yeast cultured two hours with chemical substance, DNA chip fluorescence ratio to control): 0.8
The level of expressed mRNA in the presence of chemical substance/The level of expressed mRNA in the absence of chemical substance, yeast gene YJL180C (gene YJL180C (mitochondria-located protein gene), yeast cultured two hours with chemical substance, DNA chip fluorescence ratio to control): 1.1
The level of expressed mRNA in the presence of chemical substance/The level of expressed mRNA in the absence of chemical substance, yeast gene YKR009C (gene YKR009C, Metabolism protein genes, DNA chip fluorescence ratio): 1.5
The level of expressed mRNA in the presence of chemical substance/The level of expressed mRNA in the absence of chemical substance, yeast gene YLR295C (gene YLR295C (mitochondria-located protein gene), yeast cultured two hours with chemical substance, DNA chip fluorescence ratio to control): 1.1
The level of expressed mRNA in the presence of chemical substance/The level of expressed mRNA in the absence of chemical substance, yeast gene YLR351C (gene YLR351C, Metabolism protein genes, DNA chip fluorescence ratio): 1.3
The level of expressed mRNA in the presence of chemical substance/The level of expressed mRNA in the absence of chemical substance, yeast gene YLR375W (gene YLR375W, Metabolism protein genes, DNA chip fluorescence ratio): 0.9
The level of expressed mRNA in the presence of chemical substance/The level of expressed mRNA in the absence of chemical substance, yeast gene YMR023C (gene YMR023C (mitochondria-located protein gene), yeast cultured two hours with chemical substance, DNA chip fluorescence ratio to control): 0.5
The level of expressed mRNA in the presence of chemical substance/The level of expressed mRNA in the absence of chemical substance, yeast gene YMR267W (gene YMR267W (mitochondria-located protein gene), yeast cultured two hours with chemical substance, DNA chip fluorescence ratio to control): 0.7
The level of expressed mRNA in the presence of chemical substance/The level of expressed mRNA in the absence of chemical substance, yeast gene YMR267W (gene YMR267W, Metabolism protein genes, DNA chip fluorescence ratio): 0.7
The level of expressed mRNA in the presence of chemical substance/The level of expressed mRNA in the absence of chemical substance, yeast gene YMR278W (gene YMR278W, Metabolism protein genes, DNA chip fluorescence ratio): 1.4
The level of expressed mRNA in the presence of chemical substance/The level of expressed mRNA in the absence of chemical substance, yeast gene YMR293C (gene YMR293C, Metabolism protein genes, DNA chip fluorescence ratio): 1.6
The level of expressed mRNA in the presence of chemical substance/The level of expressed mRNA in the absence of chemical substance, yeast gene YNL073W (gene YNL073W (mitochondria-located protein gene), yeast cultured two hours with chemical substance, DNA chip fluorescence ratio to control): 0.9
The level of expressed mRNA in the presence of chemical substance/The level of expressed mRNA in the absence of chemical substance, yeast gene YNR072W (gene YNR072W, Metabolism protein genes, DNA chip fluorescence ratio): 0.5
The level of expressed mRNA in the presence of chemical substance/The level of expressed mRNA in the absence of chemical substance, yeast gene YOL096C (gene YOL096C, Metabolism protein genes, DNA chip fluorescence ratio): 1.2
The level of expressed mRNA in the presence of chemical substance/The level of expressed mRNA in the absence of chemical substance, yeast gene YOR180C (gene YOR180C, Metabolism protein genes, DNA chip fluorescence ratio): 1.0
The level of expressed mRNA in the presence of chemical substance/The level of expressed mRNA in the absence of chemical substance, yeast gene YOR316C (gene YOR316C (mitochondria-located protein gene), yeast cultured two hours with chemical substance, DNA chip fluorescence ratio to control): 1.5
The level of expressed mRNA in the presence of chemical substance/The level of expressed mRNA in the absence of chemical substance, yeast gene YOR363C (gene YOR363C, Metabolism protein genes, DNA chip fluorescence ratio): 0.9
The level of expressed mRNA in the presence of chemical substance/The level of expressed mRNA in the absence of chemical substance, yeast gene YPL040C (gene YPL040C (mitochondria-located protein gene), yeast cultured two hours with chemical substance, DNA chip fluorescence ratio to control): 0.8
The level of expressed mRNA in the presence of chemical substance/The level of expressed mRNA in the absence of chemical substance, yeast gene YPL134C (gene YPL134C (mitochondria-located protein gene), yeast cultured two hours with chemical substance, DNA chip fluorescence ratio to control): 1.6
The level of expressed mRNA in the presence of chemical substance/The level of expressed mRNA in the absence of chemical substance, yeast gene YPR184W (gene YPR184W, Metabolism protein genes, DNA chip fluorescence ratio): 5.7
level of expressed mRNA in the presence of chemical substance / level in the absence of chemical substance (yeast gene YAL018C): 1.1
The level of expressed mRNA in the presence of chemical substance/The level of expressed mRNA in the absence of chemical substance (yeast gene YAL053W): 1.3
level of expressed mRNA in the presence of chemical substance / level in the absence of chemical substance (yeast gene YAR047C): 1.5
level of expressed mRNA in the presence of chemical substance / level in the absence of chemical substance (yeast gene YAR064W): 0.9
level of expressed mRNA in the presence of chemical substance / level in the absence of chemical substance (yeast gene YBL044W): 2.1
The level of expressed mRNA in the presence of chemical substance/The level of expressed mRNA in the absence of chemical substance (yeast gene YBL048W): 2.3
The level of expressed mRNA in the presence of chemical substance/The level of expressed mRNA in the absence of chemical substance (yeast gene YBL107C): 0.4
level of expressed mRNA in the presence of chemical substance / level in the absence of chemical substance (yeast gene YBR012C): 1.3
level of expressed mRNA in the presence of chemical substance / level in the absence of chemical substance (yeast gene YBR066C): 1.6
level of expressed mRNA in the presence of chemical substance / level in the absence of chemical substance (yeast gene YBR124W): 1.5
level of expressed mRNA in the presence of chemical substance / level in the absence of chemical substance (yeast gene YBR162C): 3.1
level of expressed mRNA in the presence of chemical substance / level in the absence of chemical substance (yeast gene YBR287W): 3.1
level of expressed mRNA in the presence of chemical substance / level in the absence of chemical substance (yeast gene YCL042W): 7.2
level of expressed mRNA in the presence of chemical substance / level in the absence of chemical substance (yeast gene YCL056C): 0.7
level of expressed mRNA in the presence of chemical substance / level in the absence of chemical substance (yeast gene YCR007C): 0.9
level of expressed mRNA in the presence of chemical substance / level in the absence of chemical substance (yeast gene YDL046W): 5.1
The level of expressed mRNA in the presence of chemical substance/The level of expressed mRNA in the absence of chemical substance (yeast gene YDL072C): 3.5
The level of expressed mRNA in the presence of chemical substance/The level of expressed mRNA in the absence of chemical substance (yeast gene YDL204W): 4.8
The level of expressed mRNA in the presence of chemical substance/The level of expressed mRNA in the absence of chemical substance (yeast gene YDL222C): 1.5
level of expressed mRNA in the presence of chemical substance / level in the absence of chemical substance (yeast gene YDR090C): 0.8

Source: patent US20100041089A1, “IMPROVED METHOD FOR DETECTING CHEMICAL […]” (priority 2006, published 2010)
